# Measurements published in patent publication US20260200946A1, “KRAS(G12V) INHIBITORS” (Ranok Therapeutics (Hangzhou) Co. Ltd., priority 2022, published 2026).
# System: NCIH727 cells
# Assay: Cancer cell line proliferation (CellTiter-Glo), NCI-H727
# Type: cell-based
# Conditions: Homo sapiens, 72 h, NCIH727 lung carcinoid, heterozygous G12V
# Experimental: Cell lines were cultured essentially according to ATCC recommendations.
# SW620 and NCIH727 cells were plated in 384-well tissue culture plates at 1,000 cells/well and incubated at 37° C./5% CO2 for 72 hr in 40 μl of media. […] Each cell line was then treated with test compounds at various concentrations with a final concentration of 0.5% DMSO/well, and then incubated at 37° C./5% CO2 for 72 hr. 40 μl of CellTiter-Glo® Reagent (Promega Corporation, Madison, WI) was added to each well and processed according manufacturer's protocol. Results were analyzed and IC50 values were calculated in GraphPad 8.0 software.
row,SMILES,EC50 [nM]
1,C#Cc1c(F)ccc2cc(O)cc(-c3nc(OC)c4c(N5CC6CCC(C5)N6C(=O)NCC(F)(F)F)nc(OCC5(CN6CCC(C#N)CC6)CC5)nc4c3F)c12 [Example 133],< 100
2,C#Cc1c(F)ccc2cc(O)cc(-c3nc(OC)c4c(N5CC6CCC(C5)N6C(=O)NC(C)C#N)nc(OCC5(CN6CCC(C#N)CC6)CC5)nc4c3F)c12 (centres unmarked) [Example 134],< 100
3,C#Cc1c(F)ccc2cc(O)cc(-c3nc(OC)c4c(N5CC6CCC(C5)N6C(=O)NC(C)C#N)nc(OCC5(CN6CCC(C(F)(F)F)CC6)CC5)nc4c3F)c12 (centres unmarked) [Example 135],< 100
4,C#Cc1c(F)ccc2cc(O)cc(-c3nc(OC)c4c(N5CC6CCC(C5)N6C(=O)NCC(F)(F)F)nc(OCC5(CN6CCC(C(F)(F)F)CC6)CC5)nc4c3F)c12 [Example 136],< 100
5,C#Cc1c(F)ccc2cc(O)cc(-c3nc(OC)c4c(N5CC6CCC(C5)N6C)nc(OCC5(CN6CC7CC7C6)CC5)nc4c3F)c12 (centres unmarked) [Example 137],> 1000
6,C#Cc1c(F)ccc2cc(O)cc(-c3nc(OC)c4c(N5CC6CCC(C5)N6C(=O)COC(F)(F)F)nc(OCC5(CN6CC7CC7C6)CC5)nc4c3F)c12 (centres unmarked) [Example 138],100 to 1000
7,C#Cc1c(F)ccc2cc(O)cc(-c3nc(OC)c4c(N5CC6CCC(C5)N6C(=O)C(C)(C#N)CC#N)nc(OCC5(CN6CC7CC7C6)CC5)nc4c3F)c12 (centres unmarked) [Example 139],100 to 1000
8,C#Cc1c(F)ccc2cc(O)cc(-c3nc(OC)c4c(N5CC6CCC(C5)N6C(=O)C(C)CC#N)nc(OCC5(CN6CC7CC7C6)CC5)nc4c3F)c12 (centres unmarked) [Example 141],100 to 1000
9,C#Cc1c(F)ccc2cc(O)cc(-c3nc(OC)c4c(N5CC6CCC(C5)N6C)nc(OCC5(CN6CCC(C(F)(F)F)CC6)CC5)nc4c3F)c12 [Example 142],> 1000
10,C#Cc1c(F)ccc2cc(O)cc(-c3nc(OC)c4c(N5CC6CCC(C5)N6C(=O)N5CC6CC6C5)nc(OCC5(CN6CC7CC7C6)CC5)nc4c3F)c12 (centres unmarked) [Example 143],100 to 1000
11,C#Cc1c(F)ccc2cc(O)cc(-c3nc(OC)c4c(N5CC6CCC(C5)N6C(=O)NCC)nc(OCC5(CN6CC7CC7C6)CC5)nc4c3F)c12 (centres unmarked) [Example 144],100 to 1000
12,C#Cc1c(F)ccc2cc(O)cc(-c3nc(OC)c4c(N5CC6CCC(C5)N6C(=O)NC5CC(C#N)C5)nc(OCC5(CN6CC7CC7C6)CC5)nc4c3F)c12 (centres unmarked) [Example 145],100 to 1000
13,C#CCC(C#N)C(=O)N1C2CCC1CN(c1nc(OCC3(CN4CC5CC5C4)CC3)nc3c(F)c(-c4cc(O)cc5ccc(F)c(C#C)c45)nc(OC)c13)C2 (centres unmarked) [Example 146],100 to 1000
14,C#Cc1c(F)ccc2cc(O)cc(-c3nc(OC)c4c(N5CC6CCC(C5)N6C(=O)CC(C)(C)C#N)nc(OCC5(CN6CC7CC7C6)CC5)nc4c3F)c12 (centres unmarked) [Example 148],< 100
15,C#Cc1c(F)ccc2cc(O)cc(-c3nc(OC)c4c(N5CC6CCC(C5)N6C(=O)C5CNC(=O)C5)nc(OCC5(CN6CC7CC7C6)CC5)nc4c3F)c12 (centres unmarked) [Example 149],> 1000
16,C#Cc1c(F)ccc2cc(O)cc(-c3nc(OC)c4c(N5CC6CCC(C5)N6C(=O)C5CC(F)(C(C)C)C5)nc(OCC5(CN6CC7CC7C6)CC5)nc4c3F)c12 (centres unmarked) [Example 150],100 to 1000
17,C#Cc1c(F)ccc2cc(O)cc(-c3nc(OC)c4c(N5CC6CCC(C5)N6C(=O)C5CN(C)C5)nc(OCC5(CN6CC7CC7C6)CC5)nc4c3F)c12 (centres unmarked) [Example 151],> 1000
18,C#Cc1c(F)ccc2cc(O)cc(-c3nc(OC)c4c(N5CC6CCC(C5)N6C(=O)c5cocn5)nc(OCC5(CN6CC7CC7C6)CC5)nc4c3F)c12 (centres unmarked) [Example 153],100 to 1000
19,C#Cc1c(F)ccc2cc(O)cc(-c3nc(OC)c4c(N5CC6CCC(C5)N6C(=O)C5CC(F)(F)CO5)nc(OCC5(CN6CC7CC7C6)CC5)nc4c3F)c12 (centres unmarked) [Example 154],100 to 1000
20,C#Cc1c(F)ccc2cc(O)cc(-c3nc(OC)c4c(N5CC6CCC(C5)N6C(=O)C5C6CCOC65)nc(OCC5(CN6CC7CC7C6)CC5)nc4c3F)c12 (centres unmarked) [Example 155],< 100
21,C#Cc1c(F)ccc2cc(O)cc(-c3nc(OC)c4c(N5CC6CCC(C5)N6C(=O)CCNC)nc(OCC5(CN6CC7CC7C6)CC5)nc4c3F)c12 (centres unmarked) [Example 157],> 1000
22,C#Cc1c(F)ccc2cc(O)cc(-c3nc(OC)c4c(N5CC6CCC(C5)N6C(=O)NC5CN(C)C5)nc(OCC5(CN6CC7CC7C6)CC5)nc4c3F)c12 (centres unmarked) [Example 158],> 1000
23,C#Cc1c(F)ccc2cc(O)cc(-c3nc(OC)c4c(N5CC6CCC(C5)N6C(=O)N(C)CC(F)(F)F)nc(OCC5(CN6CC7CC7C6)CC5)nc4c3F)c12 (centres unmarked) [Example 159],100 to 1000
24,C#Cc1c(F)ccc2cc(O)cc(-c3nc(OC)c4c(N5CC6CCC(C5)N6C(=O)OCC#N)nc(OCC5(CN6CC7CC7C6)CC5)nc4c3F)c12 (centres unmarked) [Example 161],< 100
25,C#Cc1c(F)ccc2cc(O)cc(-c3nc(OC)c4c(N5CC6CCC(C5)N6C(=O)NC(C)C(F)(F)F)nc(OCC5(CN6CC7CC7C6)CC5)nc4c3F)c12 (centres unmarked) [Example 163],100 to 1000

row,SMILES,EC50 [nM]
1,C#Cc1c(F)ccc2cc(O)cc(-c3nc(OC)c4c(N5CC6CCC(C5)N6C(=O)OCC)nc(OCC5(CN6CC7CC7C6)CC5)nc4c3F)c12 (centres unmarked) [Example 164],100 to 1000
2,C#Cc1c(F)ccc2cc(N)cc(-c3nc(OC)c4c(N5CC6CCC(C5)N6C(=S)NC(C)C#N)nc(OCC5(CN6CC7CC7C6)CC5)nc4c3F)c12 (centres unmarked) [Example 166],> 1000
3,C#Cc1c(F)ccc2cc(O)cc(-c3nc(OC)c4c(N5CC6CCC(C5)N6C(=O)C5CC(F)(F)C5(F)F)nc(OCC5(CN6CC7CC7C6)CC5)nc4c3F)c12 (centres unmarked) [Example 167],> 1000
4,C#Cc1c(F)ccc2cc(O)cc(-c3nc(OC)c4c(N5CC6CCC(C5)N6C(=O)CCN(C)OC)nc(OCC5(CN6CC7CC7C6)CC5)nc4c3F)c12 (centres unmarked) [Example 168],100 to 1000
5,C#Cc1c(F)ccc2cc(O)cc(-c3nc(OC)c4c(N5CC6CCC(C5)C6C(=O)NCC(F)(F)F)nc(OCC5(CN6CC7CC7C6)CC5)nc4c3F)c12 (centres unmarked) [Example 170],> 1000
6,C#Cc1c(F)ccc2cc(N)cc(-c3nc(OC)c4c(N5CC6CCC(C5)N6C(=O)C[C@@H](O)C(F)(F)F)nc(OCC5(CN6CC7CC7C6)CC5)nc4c3F)c12 (some centres unmarked) [Example 171],100 to 1000
7,Cc1cc(N)nc(-c2c(Cl)cc3c(N4CC5CCC(C4)N5C(=O)CCOC(F)(F)F)nc(OCC4(CN5CC6CC6C5)CC4)nc3c2F)c1C(F)(F)F (centres unmarked) [Example 174],> 1000
8,C#Cc1c(F)ccc2cc(O)cc(-c3nc(OC)c4c(N5CC6CCC(C5)N6C(=O)N5CC(OC(F)(F)F)C5)nc(OCC5(CN6CC7CC7C6)CC5)nc4c3F)c12 (centres unmarked) [Example 175],100 to 1000
9,C#Cc1c(F)ccc2cc(O)cc(-c3nc(OC)c4c(N5CC6CCC(C5)N6C(=O)C[C@@H](C)C#N)nc(OCC5(CN6CC7CC7C6)CC5)nc4c3F)c12 (some centres unmarked) [Example 177],< 100
10,C#Cc1c(F)ccc2cc(OC(=O)C(C)C)cc(-c3nc(OC)c4c(N5CC6CCC(C5)N6C(=O)C(C#N)CC#N)nc(OCC5(CN6CC7CC7C6)CC5)nc4c3F)c12 (centres unmarked) [Example 179],100 to 1000
11,C#Cc1c(F)ccc2cc(O)cc(-c3nc(OC)c4c(N5CC6CCC(C5)N6C(=O)C[C@H](O)C(F)(F)F)nc(OCC5(CN6CC7CC7C6)CC5)nc4c3F)c12 (some centres unmarked) [Example 180],100 to 1000
12,C#Cc1c(F)ccc2cc(O)cc(-c3nc(OC)c4c(N5CC6CCC(C5)N6C(=O)CC(C)C(F)(F)F)nc(OCC5(CN6CC7CC7C6)CC5)nc4c3F)c12 (centres unmarked) [Example 181],100 to 1000
13,C#Cc1c(F)ccc2cc(O)cc(-c3nc(OC)c4c(N5CC6CCC(C5)N6C(=O)NNC)nc(OCC5(CN6CC7CC7C6)CC5)nc4c3F)c12 (centres unmarked) [Example 182],100 to 1000
14,C#Cc1c(F)ccc2cc(O)cc(-c3nc(OC)c4c(N5CC6CCC(C5)N6C(=O)NC56CC(F)(C5)C6)nc(OCC5(CN6CC7CC7C6)CC5)nc4c3F)c12 (centres unmarked) [Example 183],< 100
15,C#Cc1c(F)ccc2cc(O)cc(-c3nc(OC)c4c(N5CC6CCC(C5)N6C(=O)NC56CC(C(F)(F)F)(C5)C6)nc(OCC5(CN6CC7CC7C6)CC5)nc4c3F)c12 (centres unmarked) [Example 184],100 to 1000
16,C#Cc1c(F)ccc2cc(O)cc(-c3nc(OC)c4c(N5CC6CCC(C5)N6C(=O)C56CC(F)(C5)C6)nc(OCC5(CN6CC7CC7C6)CC5)nc4c3F)c12 (centres unmarked) [Example 185],100 to 1000
17,C#Cc1c(F)ccc2cc(O)cc(-c3nc(OC)c4c(N5CC6CCC(C5)N6C(=O)C(C#N)CC5CC5)nc(OCC5(CN6CC7CC7C6)CC5)nc4c3F)c12 (centres unmarked) [Example 186],> 1000
18,C#Cc1c(F)ccc2cc(O)cc(-c3nc(OC)c4c(N5CC6CCC(C5)N6C(=O)NCC(O)C(F)(F)F)nc(OCC5(CN6CC7CC7C6)CC5)nc4c3F)c12 (centres unmarked) [Example 187],100 to 1000
19,C#Cc1c(F)ccc2cc(O)cc(-c3nc(OC)c4c(N5CC6CCC(C5)N6C(=O)N[C@H](C)C(F)(F)F)nc(OCC5(CN6CC7CC7C6)CC5)nc4c3F)c12 (some centres unmarked) [Example 188],100 to 1000
20,C#Cc1c(F)ccc2cc(O)cc(-c3nc(OC)c4c(N5CC6CCC(C5)N6C(=O)NC(C#N)C(N)=O)nc(OCC5(CN6CC7CC7C6)CC5)nc4c3F)c12 (centres unmarked) [Example 189],> 1000
21,C#Cc1c(F)ccc2cc(O)cc(-c3nc(OC)c4c(N5CC6CCC(C5)N6C(=O)N[C@H]5C[C@@H](C#N)C5)nc(OCC5(CN6CC7CC7C6)CC5)nc4c3F)c12 (some centres unmarked) [Example 190],100 to 1000
22,C#Cc1c(F)ccc2cc(O)cc(-c3nc(OC)c4c(N5CC6CCC(C5)N6C(=O)N[C@H]5C[C@H](C#N)C5)nc(OCC5(CN6CC7CC7C6)CC5)nc4c3F)c12 (some centres unmarked) [Example 191],100 to 1000
23,C#Cc1c(F)ccc2cc(O)cc(-c3nc(OC)c4c(N5CC6CCC(C5)N6C(=O)NC(C#N)C5CC5)nc(OCC5(CN6CC7CC7C6)CC5)nc4c3F)c12 (centres unmarked) [Example 192],100 to 1000
24,C#Cc1c(F)ccc2cc(O)cc(-c3nc(OC)c4c(N5CC6CCC(C5)N6C(=O)CC(C)(O)C(F)(F)F)nc(OCC5(CN6CC7CC7C6)CC5)nc4c3F)c12 (centres unmarked) [Example 193],100 to 1000

# Same assay, conditions: Homo sapiens, NCIH727 lung carcinoid, heterozygous G12V, 72 hr
row,SMILES,EC50 [nM]
1,C#Cc1c(F)ccc2cc(O)cc(-c3nc(OC)c4c(N5CC6CCC(C5)N6C(=O)OCC(F)(F)F)nc(OCC5(CN6CC7CC7C6)CC5)nc4c3F)c12 (centres unmarked) [Example 162],100 to 1000
